Measurements taken from patent US9133116B2, “Bicyclic compounds” (PANACEA BIOTEC LTD., priority 2010, dated 2015).
Read-outs that look alike come from different tables or passages of the source. Marks after values point to notes of the source that are not given here.

Experiments:
male SWISS albino mice = assay: Forced Swim Test in mice; assay type: in vivo; details: oral, 15 min before test, immobility in last 4 min of 6 min
Procedure: This test was conducted according to the method of Li, X., et al., Metabotropic Glutamate 5 Receptor Antagonism Is Associated with Antidepressant-Like Effects in Mice. J Pharmacol Exp Ther., 319(1):254-259 (2006), with slight modifications.
A test compound was suspended in 0.25% CMC, unless otherwise specified, and this solution was orally administered to male SWISS albino mice (7 to 9 week old). 15 min later, the mice were placed in a water tank having a water depth of 15 cm and a water temperature of 25±1° C. and immediately thereafter allowed to swim for 6 min. Then, a time during which the mouse was immobile (immobility time) was measured for the last 4 min.
Cleversys Software (Forced Swim Scan) was used for carrying out Forced Swim Test in mice.

SERT = target: T1, SERT (Homo sapiens, UniProt P31645); assay: Serotonin Binding Assay ([3H]-Citalopram Binding Assay); details: NE = Not Effective; for inhibition at 0.1 µM / inhibition at 1 µM: 1 h
T1 construct: purchased Perkin Elmer
Procedure: 2. Serotonin Binding Assay
The Membrane protein of 0.4 mL size vial, with protein concentration of 9.0 mg/ml was bought from Perkin Elmer, stored in −80° C. until required.
[^3H]-Citalopram Binding Assay:
(§1) Each well of 96 well microtitre plate was set up to contain the following:
The microtitre plates were incubated at 25° C. for 60 min; reaction was stopped by filtration in GF/B filter plate (presoaked in 0.5% Polyethylenimine) and then added 50 μL of microscint 40. Radioactivity was measured on Liquid Scintillation counter (Perkin Elmer).

NET = target: T2, NET (Homo sapiens, UniProt P23975); assay: Norepinephrine Binding Assay ([3H]-Nisoxetine Binding Assay); details: NE = Not Effective; for inhibition at 0.1 µM / inhibition at 1 µM: 1 h
T2 construct: purchased Perkin Elmer
Procedure: 1. Norepinephrine Binding Assay
The Membrane protein of 0.4 mL size vial, with protein concentration of 3.0 mg/ml was bought from Perkin Elmer, stored in −80° C. until required.
[^3H]-Nisoxetine Binding Assay:
as §1
The microtitre plates were incubated at 4° C. for 60 mins; reaction was stopped by filtration in GF/B filter plate (presoaked in 0.5% Polyethylenimine) and then added 50 μl of microscint 40. Radioactivity was measured on Liquid Scintillation counter (Perkin Elmer).

DAT = target: T3, DAT (Homo sapiens, UniProt Q01959); assay: Dopamine Binding Assay ([3H]-WIN35,428 Binding Assay); details: NE = Not Effective; for inhibition at 1 µM / inhibition at 0.1 µM: 2 h; for inhibition at 0.1 µM: read-out: DAT % WIN 35428 displacement 100 nM, 100 nM test compound
T3 construct: purchased Perkin Elmer
Procedure: 3. Dopamine Binding Assay
The Membrane protein of 0.4 mL size vial, with protein concentration of 12 mg/mL was bought from Perkin Elmer, stored in −80° C. until required.
[^3H]-WIN35,428 Binding Assay:
as §1
The microtitre plates were incubated at 4° C. for 120 min; reaction was stopped by filtration in GF/B filter plate (presoaked in 0.5% Polyethylenimine) and then added 50 μL of microscint 40. Radioactivity was measured on Liquid Scintillation counter (Perkin Elmer).

[1] = read-out: SERT % Citalopram displacement 100 nM, 100 nM test compound
[2] = read-out: SERT % Citalopram displacement 1 μM, 1 μM test compound
[3] = read-out: NET % Nisoxetine displacement 100 nM, 100 nM test compound
[4] = read-out: NET % Nisoxetine displacement 1 μM, 1 μM test compound
[5] = read-out: DAT % WIN 35428 displacement 1 μM, 1 μM test compound
[6] = 1 μM test compound, read-out: NET % Nisoxetine displacement 1 μM
[7] = 100 nM test compound, read-out: SERT % Citalopram displacement 100 nM
[8] = 1 μM test compound, read-out: SERT % Citalopram displacement 1 μM
[9] = 1 μM test compound, read-out: DAT % WIN 35428 displacement 1 μM

T2 sequence (P23975 whole entry): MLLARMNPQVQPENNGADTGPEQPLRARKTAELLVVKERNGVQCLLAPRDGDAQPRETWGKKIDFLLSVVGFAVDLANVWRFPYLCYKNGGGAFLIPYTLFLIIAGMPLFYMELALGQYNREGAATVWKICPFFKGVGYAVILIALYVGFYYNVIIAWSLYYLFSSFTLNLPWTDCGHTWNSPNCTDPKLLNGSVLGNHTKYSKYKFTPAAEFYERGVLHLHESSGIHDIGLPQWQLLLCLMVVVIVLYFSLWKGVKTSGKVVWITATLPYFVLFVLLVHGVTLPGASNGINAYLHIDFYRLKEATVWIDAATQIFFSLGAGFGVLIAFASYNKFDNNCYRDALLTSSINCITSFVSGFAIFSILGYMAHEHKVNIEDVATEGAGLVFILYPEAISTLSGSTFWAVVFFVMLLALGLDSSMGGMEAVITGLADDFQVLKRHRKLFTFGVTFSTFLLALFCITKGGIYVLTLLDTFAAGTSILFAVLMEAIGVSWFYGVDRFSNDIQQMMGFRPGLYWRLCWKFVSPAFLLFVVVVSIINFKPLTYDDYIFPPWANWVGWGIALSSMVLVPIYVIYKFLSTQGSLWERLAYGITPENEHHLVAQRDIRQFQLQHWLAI
T1 sequence (P31645 whole entry): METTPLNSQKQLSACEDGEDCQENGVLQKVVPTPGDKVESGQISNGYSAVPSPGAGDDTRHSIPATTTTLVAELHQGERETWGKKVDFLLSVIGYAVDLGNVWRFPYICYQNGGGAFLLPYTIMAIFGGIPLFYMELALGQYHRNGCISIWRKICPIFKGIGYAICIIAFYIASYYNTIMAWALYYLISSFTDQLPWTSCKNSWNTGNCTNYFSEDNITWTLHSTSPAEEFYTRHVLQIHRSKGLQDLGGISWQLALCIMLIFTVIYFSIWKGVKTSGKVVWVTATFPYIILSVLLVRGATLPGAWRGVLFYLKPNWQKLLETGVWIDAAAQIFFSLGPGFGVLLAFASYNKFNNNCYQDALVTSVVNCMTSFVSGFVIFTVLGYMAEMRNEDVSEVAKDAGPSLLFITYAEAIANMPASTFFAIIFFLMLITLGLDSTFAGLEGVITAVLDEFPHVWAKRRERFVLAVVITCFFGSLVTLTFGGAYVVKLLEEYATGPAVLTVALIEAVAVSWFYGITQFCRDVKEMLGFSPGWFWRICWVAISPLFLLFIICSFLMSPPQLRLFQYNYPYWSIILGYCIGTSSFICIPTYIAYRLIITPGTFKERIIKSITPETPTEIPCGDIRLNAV
T3 sequence (Q01959 whole entry): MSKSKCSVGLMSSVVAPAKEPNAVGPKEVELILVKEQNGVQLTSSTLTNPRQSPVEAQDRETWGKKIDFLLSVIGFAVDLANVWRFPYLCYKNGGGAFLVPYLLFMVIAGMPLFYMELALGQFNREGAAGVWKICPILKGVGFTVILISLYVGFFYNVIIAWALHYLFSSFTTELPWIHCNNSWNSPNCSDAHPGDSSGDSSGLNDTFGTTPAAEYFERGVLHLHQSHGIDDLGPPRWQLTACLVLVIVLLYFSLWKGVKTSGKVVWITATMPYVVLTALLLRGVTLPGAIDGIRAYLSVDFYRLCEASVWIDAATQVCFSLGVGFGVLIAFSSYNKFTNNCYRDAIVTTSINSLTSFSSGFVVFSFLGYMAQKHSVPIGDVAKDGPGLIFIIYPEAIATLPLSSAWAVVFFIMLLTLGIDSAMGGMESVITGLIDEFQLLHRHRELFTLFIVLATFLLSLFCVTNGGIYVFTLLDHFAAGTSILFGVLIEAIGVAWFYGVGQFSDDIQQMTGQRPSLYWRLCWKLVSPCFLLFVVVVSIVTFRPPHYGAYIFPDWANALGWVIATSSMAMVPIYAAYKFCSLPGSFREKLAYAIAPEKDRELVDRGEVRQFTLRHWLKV

CON=C(c1ccc(Cl)c(Cl)c1)C1C2CNCC21.Cl (stereo not drawn)
% decrease in immobility time (dose 32 mg/kg) (male SWISS albino mice; vehicle de-ionized water): 80.0 ± 3.8^z %

CON=CC1C2CNCC12c1ccc(Cl)c(Cl)c1.Cl (stereo not drawn)
% decrease in immobility time (dose 32 mg/kg) (male SWISS albino mice; vehicle de-ionized water): 87.5 ± 4.1^z %

CCON=CC1C2CNCC12c1ccc(Cl)c(Cl)c1.Cl (stereo not drawn)
% decrease in immobility time (dose 32 mg/kg) (male SWISS albino mice; suspended in 0.25% CMC): 83.1 ± 9.6%

CON=CC1C2CNCC12c1ccc(Cl)cc1.Cl (stereo not drawn)
% decrease in immobility time (dose 32 mg/kg) (male SWISS albino mice; vehicle de-ionized water): 50.2 ± 14.7^z %

CON=CC1C2CNCC12c1ccc(F)cc1.Cl (stereo not drawn)
% decrease in immobility time (dose 32 mg/kg) (male SWISS albino mice; vehicle de-ionized water): 55.1 ± 13.0^z %

CON=CC1C2CNCC12c1ccccc1.Cl (stereo not drawn)
% decrease in immobility time (dose 32 mg/kg) (male SWISS albino mice; suspended in 0.25% CMC): 60.4 ± 12.6%

CON=C(c1ccccc1)C1C2CNCC21 (stereo not drawn)
inhibition at 0.1 µM (SERT; [1]): 18.4%
inhibition at 1 µM (SERT; [2]): 27.5%

CON=C(c1ccc2ccccc2c1)C1C2CNCC21 (stereo not drawn)
inhibition at 0.1 µM (NET; [3]): 21.8%
inhibition at 1 µM (NET; [4]): 60.5%
inhibition at 0.1 µM (SERT; [1]): 77.2%
inhibition at 1 µM (SERT; [2]): 93.4%

ON=C(c1ccc(Cl)c(Cl)c1)C1C2CNCC21 (stereo not drawn)
inhibition at 1 µM (NET; [4]): 25.1%
inhibition at 0.1 µM (SERT; [1]): 29.8%
inhibition at 1 µM (SERT; [2]): 74.8%
inhibition at 1 µM (DAT; [5]): 49.6%

CCON=C(c1ccc(Cl)c(Cl)c1)C1C2CNCC21 (stereo not drawn)
inhibition at 0.1 µM (NET; [3]): 18.2%
inhibition at 1 µM (NET; [4]): 61.5%
inhibition at 0.1 µM (SERT; [1]): 49.8%
inhibition at 1 µM (SERT; [2]): 87.5%
inhibition at 1 µM (DAT; [5]): 71%

C=CCON=C(c1ccc(Cl)c(Cl)c1)C1C2CNCC21 (stereo not drawn)
inhibition at 0.1 µM (NET; 100 nM test compound, read-out: NET % Nisoxetine displacement 100 nM): 14.3%
inhibition at 1 µM (NET; [6]): 71.3%
inhibition at 0.1 µM (SERT; [7]): 72.6%
inhibition at 1 µM (SERT; [8]): 94.4%
inhibition at 1 µM (DAT; [9]): 78%

Clc1ccc(C(=NOCC2CC2)C2C3CNCC32)cc1Cl (stereo not drawn)
inhibition at 1 µM (NET; [6]): 33.9%
inhibition at 0.1 µM (SERT; [7]): 69.8%
inhibition at 1 µM (SERT; [8]): 95.5%
inhibition at 1 µM (DAT; [9]): 68.7%

Clc1ccc(C(=NOc2ccccc2)C2C3CNCC32)cc1Cl (stereo not drawn)
inhibition at 1 µM (NET; [6]): 19.1%
inhibition at 1 µM (SERT; [8]): 61.4%

Clc1ccc(C(=NOCc2ccccc2)C2C3CNCC32)cc1Cl (stereo not drawn)
inhibition at 1 µM (NET; [6]): 27.2%
inhibition at 0.1 µM (SERT; [7]): 30.4%
inhibition at 1 µM (SERT; [8]): 85.8%
inhibition at 1 µM (DAT; [9]): 36%

CON=CC1C2CNCC12c1ccc(Cl)c(Cl)c1 (stereo not drawn)
inhibition at 0.1 µM (NET; [3]): 37.4%
inhibition at 1 µM (NET; [4]): 82.3%
inhibition at 0.1 µM (SERT; [1]): 65%
inhibition at 1 µM (SERT; [2]): 91.8%
inhibition at 0.1 µM (DAT): 30.6%
inhibition at 1 µM (DAT; [5]): 66.3%

CCON=CC1C2CNCC12c1ccc(Cl)c(Cl)c1 (stereo not drawn)
inhibition at 0.1 µM (SERT; [1]): 83.7%
inhibition at 1 µM (SERT; [2]): 94.4%
inhibition at 0.1 µM (DAT): 16.7%
inhibition at 1 µM (DAT; [5]): 71.8%

Clc1ccc(C23CNCC2C3C=NOCc2ccccc2)cc1Cl (stereo not drawn)
inhibition at 0.1 µM (NET; [3]): 34.6%
inhibition at 1 µM (NET; [4]): 73.6%
inhibition at 0.1 µM (SERT; [1]): 23.3%
inhibition at 1 µM (SERT; [2]): 89%
inhibition at 0.1 µM (DAT): 27%
inhibition at 1 µM (DAT; [5]): 39%

Fc1ccc(CON=CC2C3CNCC23c2ccc(Cl)c(Cl)c2)cc1 (stereo not drawn)
inhibition at 1 µM (NET; [6]): 74.2%
inhibition at 0.1 µM (SERT; [7]): 12.5%
inhibition at 1 µM (SERT; [8]): 88.8%
inhibition at 1 µM (DAT; [9]): 40.9%

CON=CC1C2CNCC12c1ccc(Cl)cc1 (stereo not drawn)
inhibition at 1 µM (NET; [4]): 54.5%
inhibition at 0.1 µM (SERT; [1]): 37.8%
inhibition at 1 µM (SERT; [2]): 85.6%
inhibition at 1 µM (DAT; [5]): 29.9%

CON=CC1C2CNCC12c1ccc(F)cc1 (stereo not drawn)
inhibition at 0.1 µM (SERT; [1]): 43.5%
inhibition at 1 µM (SERT; [2]): 85.1%

CON=CC1C2CNCC12c1ccccc1 (stereo not drawn)
inhibition at 0.1 µM (SERT; [1]): 39.2%
inhibition at 1 µM (SERT; [2]): 79.9%

CON=C(c1ccc(Cl)c(Cl)c1)C1C2CNCC21.Cl (stereo not drawn) [drawing 66]
inhibition at 0.1 µM (NET; [3]): 15.6%
inhibition at 1 µM (NET; [4]): 75.6%
inhibition at 0.1 µM (SERT; [1]): 43.1%
inhibition at 1 µM (SERT; [2]): 84.8%
DAT % WIN 35428 displacement 1 μM (DAT; 1 μM test compound): 32.76%

CON=C(c1ccc(Cl)c(Cl)c1)C1C2CNCC21 (stereo not drawn) [drawing 72]
NET % Nisoxetine displacement 100 nM (NET; 100 nM test compound): 24.48%
NET % Nisoxetine displacement 1 μM (NET; 1 μM test compound): 75.97%
SERT % Citalopram displacement 100 nM (SERT; 100 nM test compound): 50.25%
SERT % Citalopram displacement 1 μM (SERT; 1 μM test compound): 90.07%
DAT % WIN 35428 displacement 1 μM (DAT; 1 μM test compound): 64.58%
inhibition at 0.1 µM (DAT): 28.1%
